Literature values, collected in article PMC6318274, “Lattice engineering enables definition of molecular features allowing for potent small-molecule inhibition of HIV-1 entry” (Nature Communications, 2019).

Tested on: HIV-1 strain NL4-3
Conditions: cited from earlier work

SMILES: COc1cnc(-n2cnc(C)n2)c2[nH]cc(C(=O)C(=O)N3CCN(C(=O)c4ccccc4)CC3)c12 [BMS-626529]
- EC50: 2.2 ± 0.6 nM
